Consider ten molecules from patent US12252470B2, “Lipids and nanoparticle compositions thereof” (Generation Bio Co., priority 2020, dated 2025).

Molecules are shown by their SMILES.

For data set [1], the system named is ceDNA-luciferase (ceDNA-luc). In words: In vivo ceDNA-luc expression by IVIS imaging after IV dosing of LNPs. As to conditions: for luciferase expressions and/or activity compared to SS-OP LNP / luciferase expressions and/or activity compared to positive control SS-OP ceDNA LNPs / luciferase activity compared to positive control SS-OP ceDNA LNP / luciferase expression and/or activity compared to positive control SS-OP ceDNA LNP: Day 4; for luciferase expressions and/or activity compared to SS-OP LNP: 0.25 mg/kg IV; for luciferase expressions and/or activity compared to positive control SS-OP ceDNA LNPs: Study A, vs LNPs 1, 2 and 7-12 (SS-OP), FIG. 1; for luciferase expressions and/or activity compared to positive control SS-OP ceDNA LNPs / luciferase activity compared to positive control SS-OP ceDNA LNP: 0.25 mg/kg IV once on Day 0; for luciferase activity compared to positive control SS-OP ceDNA LNP: Study B, vs LNP 13 (SS-OP), FIG. 2; for luciferase expression and/or activity, rank among lipids tested: Studies A and B; for luciferase expression and/or activity compared to positive control SS-OP ceDNA LNP: Study C, at both 25 mg/kg and 1 mg/kg, vs LNP 19 (SS-OP), FIG. 3. The arrangement: species or system CD-1 mice. As to the method: Lipid nanoparticles (LNP) were prepared at a total lipid to ceDNA weight ratio of approximately 10:1 to 30:1. Briefly, an ionizable lipid of the present invention, a non-cationic lipid (e.g., distearoylphosphatidylcholine (DSPC)), a component to provide membrane integrity (such as a sterol, e.g., cholesterol) and a conjugated lipid molecule (such as a PEG-lipid, e.g., 1-(monomethoxy-polyethyleneglycol)-2,3-dimyristoylglycerol, with an average PEG molecular weight of 2000 (“PEG-DMG”)), were solubilized in alcohol (e.g., ethanol) at a molar ratio of, for example, 50:10:37:3 or 20:40:38:2. The ceDNA was diluted to a desired concentration in buffer solution. For example, the ceDNA were diluted to a concentration of 0.1 mg/ml to 0.25 mg/ml in a buffer solution comprising sodium acetate, sodium acetate and magnesium chloride, citrate, malic acid, or malic acid and sodium chloride. In one example, the ceDNA was diluted to 0.2 mg/mL in 10 to 50 mM citrate buffer, pH 4. The alcoholic lipid solution was mixed with ceDNA aqueous solution using, for example, syringe pumps or an impinging jet mixer, at a ratio of about 1:5 to 1:3 (vol/vol) with total flow rates above 10 ml/min. In one example, the alcoholic lipid solution was mixed with ceDNA aqueous at a ratio of about 1:3 (vol/vol) with a flow rate of 12 ml/min. The alcohol was removed, and the buffer was replaced with PBS by dialysis. Alternatively, the buffers were replaced with PBS using centrifugal tubes. Alcohol removal and simultaneous buffer exchange were accomplished by, for example, dialysis or tangential flow filtration. The obtained lipid nanoparticles are filtered through a 0.2 µm pore sterile filter.
In one study, lipid nanoparticles comprising exemplary ceDNAs were prepared using a lipid solution comprising SS-OP, DSPC, Cholesterol and DMG-PEG2000 (mol ratio 50:10:37:3) as control. In some examples, a tissue target moiety like N-Acetylgalactosamine (GalNAc) was included. A GalNAc moiety such as tri-antennary GalNAc (GalNAc3) or tetra-antennary GalNAc (GalNAc4) can be synthesized as known in the art (see, WO2017/084987 and WO2013/166121) and chemically conjugated to lipid or PEG as well-known in the art (see, Resen et al., J. Biol. Chem. (2001) “Determination of the Upper Size Limit for Uptake and Processing of Ligands by the Asialoglycoprotein Receptor on Hepatocytes in Vitro and in Vivo” […]). Aqueous solutions of ceDNA in buffered solutions were prepared. The lipid solution and the ceDNA solution were mixed using an in-house procedure on a NanoAssembler at a total flow rate of 12 mL/min at a lipid to ceDNA ratio of 1:3 (v/v).
(§1) Species (number, sex, age): CD-1 mice (N=65 and 5 spare, male, about 4 weeks of age at arrival).
(§2) Dose Administration: Test articles (LNPs: ceDNA-Luc) were dosed at 5 mL/kg on Day 0 for Groups 1-38 by intravenous administration to lateral tail vein.
• Luciferin stock powder was stored at nominally −20° C. • Stored formulated luciferin in 1 mL aliquots at 2-8° C. protect from light. • Formulated luciferin was stable for up to 3 weeks at 2-8° C., protected from light and stable for about 12 hrs at room temperature (RT). • Dissolved luciferin in PBS to a target concentration of 60 mg/mL at a sufficient volume and adjusted to pH=7.4 with 5-M NaOH (about 0.5 μl/mg luciferin) and HCl (about 0.5 μL/mg luciferin) as needed. • Prepared the appropriate amount according to protocol including at least a about 50% overage. […]

The nature of data set [2]: Tolerability in mice as measured by change in body weight. Format: in vivo. The following applies: body weight at Day 1, 0.25 mg/kg IV. As to the method: as §1
Clinical Observations: Clinical observations were performed about 1, about 5 to about 6 and about 24 hours post the Day 0 Test Material dose. Additional observations were made per exception. Body weights for all animals, as applicable, were recorded on Days 0, 1, 2, 3, 4 & 7 (prior to euthanasia). Additional body weights were recorded as needed.
as §2

Where [3] appears, read: Study D, vs LNP 23 (SS-OP), FIG. 4A.
Setting [4] is: Study D, control Ionizable Lipid A (LNP 22), FIG. 4B.
[5] abbreviates: Study E, vs LNP 27 (SS-OP), FIG. 5A.
Where [6] appears, read: Study E, outlier data point in LNP 30 excepted, FIG. 5B.

With `CCCCCCCC/C=C\CCCCCCCC(=O)Oc1ccc(CC(=O)OCCC2CCN(CCSSCCN3CCC(CCOC(=O)Cc4ccc(OC(=O)CCCCCCCC(=O)OC(CC)CCCCCCCC)cc4)CC3)CC2)cc1` (stereo not drawn) [Lipid 6, 1-(4-(2-(2-(1-(2-((2-(4-(2-(2-(4-(oleoyloxy)phenyl)acetoxy)ethyl)piperidin-1-yl)ethyl)disulfaneyl)ethyl)piperidin-4-yl)ethoxy)-2-oxoethyl)phenyl) 9-(undecan-3-yl) nonanedioate], the “luciferase expressions and/or activity compared to SS-OP LNP” value in data set [1] (setting [3]) is recorded as “equivalent or higher”. Further, in data set [2] (setting [4]), the “tolerability (change in body weight)” value is on record as “did not cause changes in body weight”.
Regarding `CCCCCCCCC(CCCCCCCC)OC(=O)CCCCCCCC(=O)Oc1ccc(CC(=O)OCCC2CCN(CCSSCCN3CCC(CCOC(=O)Cc4ccc(OC(=O)CCCCCCCC(=O)OC(CCCCCCCC)CCCCCCCC)cc4)CC3)CC2)cc1` [Lipid 5, O′1,O1-((((((disulfanediylbis(ethane-2,1-diyl))bis(piperidine-1,4-diyl))bis(ethane-2,1-diyl))bis(oxy))bis(2-oxoethane-2,1-diyl))bis(4,1-phenylene)) 9,9′-di(heptadecan-9-yl) di(nonanedioate)], in data set [1], the “luciferase expressions and/or activity compared to positive control SS-OP ceDNA LNPs” value is reported as “equivalent or higher” and the “luciferase activity compared to positive control SS-OP ceDNA LNP” value is “equivalent or higher”.
Regarding `CCCCCCCCCOC(=O)CCCCCCCC(=O)Oc1ccc(CC(=O)OCCC2CCN(CCSSCCN3CCC(CCOC(=O)Cc4ccc(OC(=O)CCCCCCCC(=O)OC(CCCCCCCC)CCCCCCCC)cc4)CC3)CC2)cc1` [Lipid 3, 1-(heptadecan-9-yl) 9-(4-(2-(2-(1-(2-((2-(4-(2-(2-(4-((9-(nonyloxy)-9-oxononanoyl)oxy)phenyl)acetoxy)ethyl)piperidin-1-yl)ethyl)disulfaneyl)ethyl)piperidin-4-yl)ethoxy)-2-oxoethyl)phenyl) nonanedioate], in data set [1], the “luciferase expression and/or activity, rank among lipids tested” value is listed as “highest”; the “luciferase expressions and/or activity compared to positive control SS-OP ceDNA LNPs” value is “equivalent or higher”; the “luciferase activity compared to positive control SS-OP ceDNA LNP” value is recorded as “equivalent or higher”; the “luciferase expression and/or activity compared to positive control SS-OP ceDNA LNP” value is “higher”.
Consider `CCCCCCCCCOC(=O)CCCCCCCC(=O)Oc1ccc(CC(=O)OCCC2CCN(CCSSCCN3CCC(CCOC(=O)Cc4ccc(OC(=O)CCCCCCCC(=O)OC(CC)CCCCCCCC)cc4)CC3)CC2)cc1` (stereo not drawn) [Lipid 9, 1-nonyl 9-(4-(2-oxo-2-(2-(1-(2-((2-(4-(2-(2-(4-((9-oxo-9-(undecan-3-yloxy)nonanoyl)oxy)phenyl)acetoxy)ethyl)piperidin-1-yl)ethyl)disulfaneyl)ethyl)piperidin-4-yl)ethoxy)ethyl)phenyl) nonanedioate], for which the “luciferase expressions and/or activity compared to SS-OP LNP” value in data set [1] (setting [5]) is given as “equivalent or higher”. Also, the “tolerability (change in body weight)” value in data set [2] (setting [6]) is “did not cause significant changes in body weight”.
For `CCCCCCCCCOC(=O)CCCCCCCC(=O)Oc1ccc(CC(=O)OCCC2CCN(CCSSCCN3CCC(CCOC(=O)Cc4ccc(OC(=O)CCCCCCCC(=O)OC(CCCCCC)CCCCCCCC)cc4)CC3)CC2)cc1` (stereo not drawn) [Lipid 11, 1-nonyl 9-(4-(2-oxo-2-(2-(1-(2-((2-(4-(2-(2-(4-((9-oxo-9-(pentadecan-7-yloxy)nonanoyl)oxy)phenyl)acetoxy)ethyl)piperidin-1-yl)ethyl)disulfaneyl)ethyl)piperidin-4-yl)ethoxy)ethyl)phenyl) nonanedioate], in that order: “equivalent or higher” and “did not cause significant changes in body weight”.
As for `CCCCCCCC/C=C\CCCCCCCC(=O)Oc1ccc(CC(=O)OCCC2CCN(CCSSCCN3CCC(CCOC(=O)Cc4ccc(OC(=O)CCCCCCCC(=O)OC(CCCCCC)CCCCCCCC)cc4)CC3)CC2)cc1` (stereo not drawn) [Lipid 8, 1-(4-(2-(2-(1-(2-((2-(4-(2-(2-(4-(oleoyloxy)phenyl)acetoxy)ethyl)piperidin-1-yl)ethyl)disulfaneyl)ethyl)piperidin-4-yl)ethoxy)-2-oxoethyl)phenyl) 9-(pentadecan-7-yl) nonanedioate], in data set [1] (setting [3]), the “luciferase expressions and/or activity compared to SS-OP LNP” value is given as “equivalent or higher”. For the same molecule, the “tolerability (change in body weight)” value in data set [2] (setting [4]) is on record as “did not cause changes in body weight”.
Regarding `CCCCCCCCCOC(=O)CCCC(=O)Oc1ccc(CC(=O)OCCC2CCN(CCSSCCN3CCC(CCOC(=O)Cc4ccc(OC(=O)CCCCCCCC(=O)OC(CCCCCCCC)CCCCCCCC)cc4)CC3)CC2)cc1` [Lipid 2, 1-(heptadecan-9-yl) 9-(4-(2-(2-(1-(2-((2-(4-(2-(2-(4-((5-(nonyloxy)-5-oxopentanoyl)oxy)phenyl)acetoxy)ethyl)piperidin-1-yl)ethyl)disulfaneyl)ethyl)piperidin-4-yl)ethoxy)-2-oxoethyl)phenyl) nonanedioate], in data set [1], the “luciferase expressions and/or activity compared to positive control SS-OP ceDNA LNPs” value is recorded as “equivalent or higher” and the “luciferase activity compared to positive control SS-OP ceDNA LNP” value is given as “equivalent or higher”.
On to `CCCCCCCC/C=C\CCCCCCCC(=O)Oc1ccc(CC(=O)OCCC2CCN(CCSSCCN3CCC(CCOC(=O)Cc4ccc(OC(=O)CCCCCCCC(=O)OC(CCCC)CCCCCCCC)cc4)CC3)CC2)cc1` (stereo not drawn) [Lipid 7, 1-(4-(2-(2-(1-(2-((2-(4-(2-(2-(4-(oleoyloxy)phenyl)acetoxy)ethyl)piperidin-1-yl)ethyl)disulfaneyl)ethyl)piperidin-4-yl)ethoxy)-2-oxoethyl)phenyl) 9-(tridecan-5-yl) nonanedioate], for which, in data set [1] (setting [3]), the “luciferase expressions and/or activity compared to SS-OP LNP” value is on record as “equivalent or higher”. The “tolerability (change in body weight)” value in data set [2] (setting [4]) is listed as “did not cause changes in body weight”.
As to `CCCCCCCCCOC(=O)CCCCCCCC(=O)Oc1ccc(CC(=O)OCCC2CCN(CCSSCCN3CCC(CCOC(=O)Cc4ccc(OC(=O)CCCCCCCC(=O)OC(CCCC)CCCCCCCC)cc4)CC3)CC2)cc1` (stereo not drawn) [Lipid 10, 1-nonyl 9-(4-(2-oxo-2-(2-(1-(2-((2-(4-(2-(2-(4-((9-oxo-9-(tridecan-5-yloxy)nonanoyl)oxy)phenyl)acetoxy)ethyl)piperidin-1-yl)ethyl)disulfaneyl)ethyl)piperidin-4-yl)ethoxy)ethyl)phenyl) nonanedioate], the “luciferase expressions and/or activity compared to SS-OP LNP” value in data set [1] (setting [5]) was “equivalent or higher”. Further, the “tolerability (change in body weight)” value in data set [2] (setting [6]) was “did not cause significant changes in body weight”.
In the case of `CCCCCCCC/C=C\CCCCCCCC(=O)Oc1ccc(CC(=O)OCCC2CCN(CCSSCCN3CCC(CCOC(=O)Cc4ccc(OC(=O)CCCCCCCC(=O)OC(CCCCCCCC)CCCCCCCC)cc4)CC3)CC2)cc1` [Lipid 1, 1-(heptadecan-9-yl) 9-(4-(2-(2-(1-(2-((2-(4-(2-(2-(4-(oleoyloxy)phenyl)acetoxy)ethyl)piperidin-1-yl)ethyl)disulfaneyl)ethyl)piperidin-4-yl)ethoxy)-2-oxoethyl)phenyl) nonanedioate], in data set [1], the “luciferase expression and/or activity, rank among lipids tested” value is “highest”; the “luciferase expressions and/or activity compared to positive control SS-OP ceDNA LNPs” value is recorded as “equivalent or higher”; the “luciferase activity compared to positive control SS-OP ceDNA LNP” value is recorded as “equivalent or higher”; the “luciferase expression and/or activity compared to positive control SS-OP ceDNA LNP” value was “higher”.
